Assay results from US20230043863A1, “HETEROAROMATIC DERIVATIVES FOR USE AS REGULATOR, PREPARATION METHOD THEREFOR AND USE THEREOF” (JIANGSU HANSOH PHARMACEUTICAL GROUP CO., LTD., priority 2018, published 2023).
Like-named read-outs stand apart in the source and are kept apart here.

Tests used:
JAK1 = JAK1 (Homo sapiens, UniProt P23458); assay: JAK kinase activity inhibition, TR-FRET (JAK1); assay type: biochemical; details: TR-FRET kinase assay
How it was run: (§1)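 Steps: compound dilutions added; JAK kinase (0.1-20 nM) in HEPES/MgCl2 buffer added; peptide substrate and ATP mix started the reaction, 0.5-5 h at room temperature; EDTA and labeled antibody added, 1-24 h further. IC50 derived from 620/665 nm signals by four-parameter nonlinear fitting.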

JAK3 = target: T1, JAK3 (Homo sapiens, UniProt P52333); assay: JAK kinase activity inhibition, TR-FRET (JAK3); assay type: biochemical; details: TR-FRET kinase assay
T1 sequence (P52333 1-1124): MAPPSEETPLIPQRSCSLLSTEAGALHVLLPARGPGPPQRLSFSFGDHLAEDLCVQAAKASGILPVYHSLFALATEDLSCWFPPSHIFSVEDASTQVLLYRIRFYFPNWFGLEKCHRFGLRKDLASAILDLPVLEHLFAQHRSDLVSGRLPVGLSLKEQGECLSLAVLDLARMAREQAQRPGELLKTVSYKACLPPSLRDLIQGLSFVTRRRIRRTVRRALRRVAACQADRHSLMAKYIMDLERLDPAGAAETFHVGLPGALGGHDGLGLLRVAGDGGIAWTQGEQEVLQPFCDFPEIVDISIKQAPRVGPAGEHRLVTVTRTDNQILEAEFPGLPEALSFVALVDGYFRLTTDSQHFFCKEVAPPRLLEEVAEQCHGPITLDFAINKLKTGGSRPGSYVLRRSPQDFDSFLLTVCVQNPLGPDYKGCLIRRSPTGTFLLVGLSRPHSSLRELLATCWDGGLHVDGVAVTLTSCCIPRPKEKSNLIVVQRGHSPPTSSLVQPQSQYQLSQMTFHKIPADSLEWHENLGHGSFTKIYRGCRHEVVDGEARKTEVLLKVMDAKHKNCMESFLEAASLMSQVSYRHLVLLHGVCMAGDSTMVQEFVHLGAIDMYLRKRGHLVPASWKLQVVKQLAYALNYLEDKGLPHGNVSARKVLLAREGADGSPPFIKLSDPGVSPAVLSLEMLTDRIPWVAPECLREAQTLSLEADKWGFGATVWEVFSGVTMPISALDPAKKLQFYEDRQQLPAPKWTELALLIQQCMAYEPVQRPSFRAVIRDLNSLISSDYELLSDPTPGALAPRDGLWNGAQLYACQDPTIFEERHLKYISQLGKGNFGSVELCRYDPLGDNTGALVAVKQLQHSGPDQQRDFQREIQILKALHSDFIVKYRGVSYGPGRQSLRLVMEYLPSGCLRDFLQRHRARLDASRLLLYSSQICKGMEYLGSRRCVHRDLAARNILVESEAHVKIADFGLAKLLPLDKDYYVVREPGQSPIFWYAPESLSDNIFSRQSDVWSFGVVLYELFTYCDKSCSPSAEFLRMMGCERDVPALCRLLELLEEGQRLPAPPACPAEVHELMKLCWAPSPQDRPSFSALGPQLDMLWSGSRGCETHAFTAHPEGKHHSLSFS
Description: (§2) Experimental objective: The objective of this test is to test the inhibitory effect of the compound on JAK kinase activity.
(§3) Experimental method: the fluorescence resonance energy transfer (TR-FRET) method was used to test the inhibitory effect of the compound on JAK kinase activity, and the half inhibitory concentration IC50 of the compound on JAK kinase activity was obtained.
(§4) Kinase reaction was carried out in a white 384-well plate (PerkinElmer). 1-5 μL of different concentrations of the compound diluted with DMSO and ddH2O was added into each well, and 1-5 μL of the corresponding solvent was added to the positive control wells, followed by addition of 0.1-20 nM JAK kinase solution diluted with 1-5 μL of kinase buffer (HEPES 50-250 mM, MgCl2 5-20 mM, etc.) was added to each well. 1-5 μL of kinase buffer was added to the negative control well. 1-5 μL of substrate mixture containing peptide substrate and ATP was added. The plate was incubated at room temperature for 0.5-5 hours. […], EDTA and detection solution containing labeled antibody was added, and then the plate was incubated at room temperature for another 1-24 hours. The fluorescence signal value at about 620 nm and 665 nm of each well was measured by BioTek Synergy H1 plate reader, and the inhibition rate was calculated by the fluorescence signal value. According to the inhibition rate of different concentrations, the IC50 of the compound was obtained by curve fitting.
(§5) The percentage inhibition data of the wells treated with the compound was calculated with the positive control wells (DMSO control wells) and negative control wells (no kinase added) on the plate {% inhibition rate=100-[(test compound value-negative control value)]/(Positive control value-negative control value)×100}. IC50 value was calculated by using GraphPad prism to fit the data of different concentrations and corresponding percentage inhibition rates to a 4-parameter non-linear logic formula.

JAK2 = JAK2 (Homo sapiens, UniProt O60674); assay: JAK kinase activity inhibition, TR-FRET (JAK2); assay type: biochemical; details: TR-FRET kinase assay
Description: as §2, §3, §4, §5

TYK2 = TYK2 (Homo sapiens, UniProt P29597); assay: JAK kinase activity inhibition, TR-FRET (TYK2); assay type: biochemical; details: TR-FRET kinase assay
How it was run: as §1

[1] = Balb/C mouse pharmacokinetics (plasma, colon, ileum); assay type: in vivo; details: male, po, Balb/C mice, p.o. 5 mg/kg; for Cmax: read-out: Blood concentration Cmax; for AUC(0-t): read-out: Curve area AUC0-t; for AUC(0-inf): read-out: Curve area AUC0-∞; for half-life: read-out: Half life period t1/2 (converted); for MRT: read-out: Mean detention time MRT; for Tmax: read-out: Time to peak tmax
Text: Balb/C mouse was used as the test animal, the pharmacokinetic behavior in mice (plasma and colon, ileum tissue) was studied after oral administering the embodiment 1, embodiment 60, embodiment 169, embodiment 170, embodiment 171, embodiment 179, embodiment 191, embodiment 213, embodiment 214, embodiment 237, embodiment 238, embodiment 244, embodiment 246, embodiment 247, embodiment 257, embodiment 260, embodiment 262, embodiment 263, embodiment 267, embodiment 277, embodiment 278, embodiment 279, embodiment 288, embodiment 295, embodiment 299 and embodiment 301 at a dose of 5 mg/kg. After analyzing the drug concentration in the colon and ileum, the ratio of the drug concentration in the colon to that in ileum, and the ratio of the drug concentration in the colon to that in the plasma, the compounds with excellent PK were selected for further research.
12 Balb/C mice in each group, male, Shanghai Jiesjie Experimental Animal Co., Ltd., animal production license number (SCXK (Shanghai) 2013-0006 N0.311620400001794).
12 Balb/C mice in each group, male; p.o. after one night fast; the dose was 5 mg/kg; the administration volume was 10 mL/kg.
At 0, 0.5, 1, 2, 3, 5 and 7 hours before and after the administration, the mice were executed by CO2 and 0.2 mL of blood was collected from the heart, placed in an EDTA-K2 test tube, and centrifuged at 6000 rpm at 4° C. for 6 minutes to separate the plasma, which was then stored at −80° C. The ileum was taken close to the cecum end with a length of about 4-5 cm, and the colon was also taken close to the cecum end with a length of about 2-3 cm, weighed and placed in a 2 mL centrifuge tube, then stored at −80° C.
1) 40 uL of plasma sample was precipitated by adding 160 uL of acetonitrile, mixed and centrifuged at 3500×g for 5-20 minutes.
2) 30 μL of plasma and intestinal homogenate sample were precipitated by adding 90 of acetonitrile containing internal standard (100 ng/mL), mixed and centrifuged at 13000 rpm for 8 minutes.
3) 70 μL of the supernatant solution after treatment was collected and 70 μL of water was added thereto, vortexed and mixed for 10 minutes, and then 20 μL was collected to analyze the concentration of the test compound by LC/MS/MS. LC/MS/MS analysis instrument: AB Sciex API 4000 Qtrap.
Liquid phase conditions: Shimadzu LC-20AD Pump
Chromatographic column: Agilent ZORBAX XDB-C18 (50×2.1 mm, 3.5 μm) mobile phase: 0.1% formic acid aqueous solution as A solution, acetonitrile as B solution
Elution time: 0-4.0 minutes, the eluent is as follows:
The main pharmacokinetic parameters were calculated with WinNonlin 6.1, and the results of mouse pharmacokinetic experiments are shown in Table 3:
NA refers to none detected or not being tested (the detection limit of blood concentration was 1 ng/mL, when the Cmax in the blood test is NA, then NA in the blood test index refers to none detected; when the Cmax in the blood test is higher than the quantitative limit 1 ng/mL, then NA in the blood test index refers to not being tested; NA in the tissues (colon and ileum) refers to not being tested).

[2] = system: JAK-STAT signal pathway of U266 cells; assay: Inhibition of cellular JAK-STAT signal pathway (STAT3 phosphorylation) in U266 cells; assay type: cell-based, human; details: Homo sapiens, U-266, INF-a 1000 U/mL stimulation
How it was run: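 U266 cells (100-300 K/well) preincubated 2 h at room temperature with serially diluted compound, then stimulated 15 min with IFN-α at 1000 U/mL final. After lysis, STAT3 phosphorylation read by LANCE Ultra TR-FRET (Eu antibody 0.5 nM, ULight antibody 5 nM, overnight) at 665 nm; IC50 from 4-parameter fit of inhibition versus DMSO and negative controls.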

Sequence of JAK1 (P23458 whole entry): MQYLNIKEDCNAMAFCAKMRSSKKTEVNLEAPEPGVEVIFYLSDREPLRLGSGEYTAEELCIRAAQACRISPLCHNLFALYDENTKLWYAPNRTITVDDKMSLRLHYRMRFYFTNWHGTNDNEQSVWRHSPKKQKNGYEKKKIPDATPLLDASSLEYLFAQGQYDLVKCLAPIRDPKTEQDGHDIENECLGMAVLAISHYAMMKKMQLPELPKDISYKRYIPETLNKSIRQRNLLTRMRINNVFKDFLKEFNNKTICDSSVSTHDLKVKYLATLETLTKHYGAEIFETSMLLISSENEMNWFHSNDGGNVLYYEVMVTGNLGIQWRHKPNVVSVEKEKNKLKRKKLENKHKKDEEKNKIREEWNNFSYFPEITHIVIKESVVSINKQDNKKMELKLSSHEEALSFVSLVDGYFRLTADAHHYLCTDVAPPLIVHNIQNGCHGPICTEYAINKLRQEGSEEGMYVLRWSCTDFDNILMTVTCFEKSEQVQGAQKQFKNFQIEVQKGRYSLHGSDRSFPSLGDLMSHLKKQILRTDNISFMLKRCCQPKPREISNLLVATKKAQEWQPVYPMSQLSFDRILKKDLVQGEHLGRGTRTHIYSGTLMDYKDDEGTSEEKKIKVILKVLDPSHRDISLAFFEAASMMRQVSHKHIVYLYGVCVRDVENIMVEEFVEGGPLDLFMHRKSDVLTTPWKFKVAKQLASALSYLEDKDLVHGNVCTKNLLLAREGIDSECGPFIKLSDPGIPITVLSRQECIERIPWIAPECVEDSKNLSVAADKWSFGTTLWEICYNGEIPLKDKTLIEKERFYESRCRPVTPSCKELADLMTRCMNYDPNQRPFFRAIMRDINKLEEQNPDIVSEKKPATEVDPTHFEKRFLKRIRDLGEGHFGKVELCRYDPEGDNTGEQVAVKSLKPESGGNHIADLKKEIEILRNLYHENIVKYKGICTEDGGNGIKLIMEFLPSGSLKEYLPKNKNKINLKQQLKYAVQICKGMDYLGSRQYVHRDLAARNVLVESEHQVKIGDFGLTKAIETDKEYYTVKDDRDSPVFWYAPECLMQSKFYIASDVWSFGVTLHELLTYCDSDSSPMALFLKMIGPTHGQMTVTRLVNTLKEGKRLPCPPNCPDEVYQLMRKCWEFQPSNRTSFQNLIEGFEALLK
Sequence of TYK2 (P29597 whole entry): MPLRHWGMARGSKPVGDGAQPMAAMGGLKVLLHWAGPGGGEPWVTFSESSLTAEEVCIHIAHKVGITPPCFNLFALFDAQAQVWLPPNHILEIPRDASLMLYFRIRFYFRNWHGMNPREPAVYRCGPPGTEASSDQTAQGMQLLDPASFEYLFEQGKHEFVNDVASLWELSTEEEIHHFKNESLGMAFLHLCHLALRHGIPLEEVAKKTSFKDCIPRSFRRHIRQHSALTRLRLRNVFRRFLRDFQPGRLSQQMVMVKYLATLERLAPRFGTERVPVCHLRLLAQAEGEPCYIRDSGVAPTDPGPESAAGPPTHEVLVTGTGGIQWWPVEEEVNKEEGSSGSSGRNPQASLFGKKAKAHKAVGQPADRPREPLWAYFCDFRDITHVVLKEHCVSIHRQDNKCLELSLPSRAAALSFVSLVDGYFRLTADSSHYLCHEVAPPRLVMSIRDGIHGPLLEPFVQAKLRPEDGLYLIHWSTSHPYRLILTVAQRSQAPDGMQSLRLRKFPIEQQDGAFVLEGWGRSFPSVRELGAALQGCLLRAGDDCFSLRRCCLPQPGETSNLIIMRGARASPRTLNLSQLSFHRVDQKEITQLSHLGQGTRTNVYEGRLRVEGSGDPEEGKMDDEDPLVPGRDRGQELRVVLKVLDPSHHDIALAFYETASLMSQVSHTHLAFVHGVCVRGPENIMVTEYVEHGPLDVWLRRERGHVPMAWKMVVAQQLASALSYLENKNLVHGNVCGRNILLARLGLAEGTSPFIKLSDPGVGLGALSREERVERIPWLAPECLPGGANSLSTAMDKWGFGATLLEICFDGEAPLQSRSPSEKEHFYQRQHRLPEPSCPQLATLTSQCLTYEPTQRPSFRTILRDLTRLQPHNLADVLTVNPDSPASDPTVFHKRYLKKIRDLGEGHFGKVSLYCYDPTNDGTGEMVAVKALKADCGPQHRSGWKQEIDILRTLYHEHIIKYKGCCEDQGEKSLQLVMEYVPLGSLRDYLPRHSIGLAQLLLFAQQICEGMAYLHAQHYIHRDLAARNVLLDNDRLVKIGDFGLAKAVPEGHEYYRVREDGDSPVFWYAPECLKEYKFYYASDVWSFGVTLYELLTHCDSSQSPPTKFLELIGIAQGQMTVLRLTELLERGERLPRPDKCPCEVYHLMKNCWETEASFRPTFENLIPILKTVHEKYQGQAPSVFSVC
Sequence of JAK2 (O60674 whole entry): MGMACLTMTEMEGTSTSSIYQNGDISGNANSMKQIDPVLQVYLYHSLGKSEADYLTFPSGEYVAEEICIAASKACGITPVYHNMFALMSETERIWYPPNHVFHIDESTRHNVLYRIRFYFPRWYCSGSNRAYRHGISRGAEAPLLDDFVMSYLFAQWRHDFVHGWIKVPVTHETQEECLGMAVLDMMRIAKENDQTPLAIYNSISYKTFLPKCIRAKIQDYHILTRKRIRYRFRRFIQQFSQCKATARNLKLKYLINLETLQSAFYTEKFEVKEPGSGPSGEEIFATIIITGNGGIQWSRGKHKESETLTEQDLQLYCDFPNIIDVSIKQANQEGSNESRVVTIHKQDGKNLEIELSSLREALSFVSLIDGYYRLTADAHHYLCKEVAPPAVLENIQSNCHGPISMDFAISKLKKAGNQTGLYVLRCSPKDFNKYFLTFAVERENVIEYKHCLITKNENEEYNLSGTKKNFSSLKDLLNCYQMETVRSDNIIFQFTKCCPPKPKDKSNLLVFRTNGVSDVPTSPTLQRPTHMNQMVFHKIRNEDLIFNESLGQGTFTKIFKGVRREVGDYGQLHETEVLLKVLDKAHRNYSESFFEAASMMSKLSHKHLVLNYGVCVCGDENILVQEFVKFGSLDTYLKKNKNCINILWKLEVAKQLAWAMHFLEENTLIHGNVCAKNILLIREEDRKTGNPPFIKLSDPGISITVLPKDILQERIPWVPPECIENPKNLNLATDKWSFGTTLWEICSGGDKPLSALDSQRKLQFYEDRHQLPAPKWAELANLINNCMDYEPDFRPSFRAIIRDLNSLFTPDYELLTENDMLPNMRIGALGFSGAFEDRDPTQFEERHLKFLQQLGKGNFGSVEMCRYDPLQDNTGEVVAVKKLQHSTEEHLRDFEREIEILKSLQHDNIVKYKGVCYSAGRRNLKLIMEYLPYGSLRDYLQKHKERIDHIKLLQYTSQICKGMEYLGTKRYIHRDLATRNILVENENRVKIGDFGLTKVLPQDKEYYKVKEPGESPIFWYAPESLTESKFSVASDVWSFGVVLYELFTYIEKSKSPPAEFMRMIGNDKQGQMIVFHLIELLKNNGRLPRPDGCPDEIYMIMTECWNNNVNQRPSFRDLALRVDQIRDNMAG

Structure (SMILES)	IC50 (JAK1)	IC50 (TYK2)	Cmax ([1]; plasma, blood)	AUC(0-t) ([1]; plasma, blood)	AUC(0-inf) ([1]; plasma, blood)	half-life ([1]; plasma, blood)	MRT ([1]; plasma, blood)	Tmax ([1]; plasma, blood)	Cmax ([1]; colon)	AUC(0-t) ([1]; colon)	MRT ([1]; colon)	Tmax ([1]; colon)	Cmax ([1]; ileum)	AUC(0-t) ([1]; ileum)	MRT ([1]; ileum)	Tmax ([1]; ileum)	IC50 [2]	AUC(0-inf) ([1]; ileum)	half-life ([1]; ileum)	further results
N#CCCN1[C@@H]2CC[C@H]1C[C@H](Nc1nc(Nc3ncc(CO)s3)cc3ncccc13)C2 [Embodiment 2]	0.11 nM	2.3 nM	–	–	–	–	–	–	–	–	–	–	–	–	–	–	–	–	–	IC50 (JAK3): 8.95 nM; IC50 (JAK2): 0.53 nM
Cc1cc(Nc2nc(N[C@@H]3C[C@H]4CCC[C@@H](C3)N4C(=O)CN3CCOCC3)nc3ccsc23)n[nH]1 [Embodiment 288, 1-((3-exo)-3-((4-((5-methyl-1H-pyrazol-3-yl)amino)thieno[3,2-d]pyrimidin-2-yl)amino)-9-azabicyclo[3.3.1]non-9-yl)-2-morpholinoethane-1-one]	0.27 nM	8.09 nM	11 ng/mL	21.5 ng·h/mL	24.5 ng·h/mL	2.6 h	2.5 h	2 h	676 ng/mL	2900 ng·h/mL	3.91 h	3 h	7380 ng/mL	17600 ng·h/mL	2.89 h	3 h	4.03 nM	–	–	–
Cc1cc(Nc2nc(N[C@@H]3C[C@H]4CC[C@@H](C3)N4CCC#N)nc3c2cnn3C)n[nH]1 [Embodiment 295, 3-((3-exo)-3-((1-methyl-4-((5-methyl-1H-pyrazol-3-yl)amino)-1H-pyrazolo[3,4-d]pyrimidin-6-yl)amino)-8-azabicyclo[3.2.1]oct-8-yl)propionitrile]	0.3 nM	10.8 nM	6.54 ng/mL	10.4 ng·h/mL	–	–	1.77 h	2 h	1030 ng/mL	3390 ng·h/mL	3.82 h	3 h	4300 ng/mL	10700 ng·h/mL	2.69 h	3 h	3.63 nM	–	–	–
Cc1cc(Nc2nc(N[C@@H]3C[C@@H]4CN(CCC#N)C[C@@H]4C3)nc3ccsc23)n[nH]1 [Embodiment 299, 3-(cis-5-((4-((5-methyl-1H-pyrazol-3-yl)amino)thieno[3,2-d]pyrimidin-2-yl)amino)hexahydrocyclopentadieno[c]pyrrole-2(1H)-yl)propionitrile]	0.28 nM	0.56 nM	6.01 ng/mL	10.6 ng·h/mL	17.8 ng·h/mL	3.76 h	1.92 h	0.5 h	295 ng/mL	948 ng·h/mL	4.94 h	7 h	531 ng/mL	1320 ng·h/mL	3.37 h	3 h	2.46 nM	1350 ng·h/mL	0.89 h	–
Cc1cc(Nc2nc(NC3CCN(CCC#N)CC3)nc3sccc23)n[nH]1 [Embodiment 301, 3-(4-((4-((5-methyl-1H-pyrazol-3-yl)amino)thieno[2,3-d]pyrimidin-2-yl)amino)piperidin-1-yl)propionitrile]	1.64 nM	0.45 nM	69.4 ng/mL	143 ng·h/mL	145 ng·h/mL	1.07 h	1.65 h	1 h	1500 ng/mL	4240 ng·h/mL	4.74 h	5 h	21100 ng/mL	35300 ng·h/mL	1.23 h	1 h	1.26 nM	35300 ng·h/mL	0.6 h	–
